Measured values as given in patent US20190376110A1, “METHOD TO DETECT BACTERIAL ACTIVITY AND PATHOGENICITY WITH BIODYNAMIC SENTINELS” (Purdue Research Foundation, priority 2018, published 2019).

How the values were obtained:
Listeria pellet = conditions: short-time response within 30 minutes of dose
Description: (§1) Various bacterial specimens can be prepared in a pellet form. A pellet is a condensed form of bacteria which allows them to be carried and handled more efficiently. Bacteria are grown in LB medium for 4 to 12 hours. When culturing is done, the bacteria density in medium is approximately 10^8 #/mL. To make the pellet, 25 mL of bacteria medium is stored in a centrifuge tube. The medium is centrifuged by 10,000 rpm for 10 minutes (Avanti J-20 XPI). During centrifugation, a pellet is formed at the bottom of a centrifuge tube.
(§2) There are two different sample plate preparations. A monoplex plate is a plate preparation format to test a rapid response of bacteria in single wells. The time resolution of the spectrum measurement is 2 minutes. A multiplex plate is a mode for measuring slow behavior using a measuring period is 30 minutes. For the multiplex, 16 wells are measured in parallel. A plate is firmly fixed on a translational stage controlled at 37 degrees Celsius or other temperature depending on the cell type and the bacterium. The plate is covered with a semi-permeable membrane which prevents the medium from drying out while permitting air molecule exchange.
(§3) Backscattered light from a specimen forms a speckle field consisting of many speckles with sizes determined by the point-spread-function of the imaging optics, and the speckle is delivered by a 4-f system (L1 and L2, f=15 cm). […]

Salmonella pellet = assay: Biodynamic imaging / fluctuation spectroscopy of Salmonella bacterial pellet; assay type: cell-based; conditions: short-time response within 30 minutes of dose
Description: as §1, §2, §3

E. coli pellet = assay: Biodynamic imaging / fluctuation spectroscopy of E. coli bacterial pellet; assay type: cell-based
Description: as §1, §2
Backscattered light from a specimen forms a speckle field consisting of many speckles with sizes determined by the point-spread-function of the imaging optics, and the speckle is delivered by a 4-f system (L1 and L2, f=15 cm). After the 4-f system, a lens (L3, f=5 cm) conducts Fourier transformation of the speckle and the Fourier image is formed at a Fourier plane on a Fourier-domain pixel array (such as a CCD).
To gain a more specific understanding of the effect of the nutrient shock, […] is used in a mode called […]. This breaks down the effects of a perturbation into a range of frequencies that are altered by the perturbation. Fluctuation spectroscopy is used routinely in biodynamic imaging applications for drug assays on cancer tissue. In the context of the bacterial pellets, the perturbation similarly can cause spectral changes whose specific frequencies relate to specific speeds of biological processes involved.

[1] = system: Listeria monocytogenes infection of DLD-1 sentinel; assay: Tissue sentinel antibiotic assay, DLD-1 spheroids infected by Listeria; assay type: cell-based
Description: As one example of an infection assay, a DLD-1 colon cancer cell line is prepared as a tissue fragment sentinel. DLD-1 cell lines are cultured for 24 hours and form a spheroid shape after incubation. Spheroids are immobilized within two hours by poly-D-lysine after placing spheroids on a bottom of plate.
To obtain infection spectra, bacteria in a pellet form can be re-suspended by diluting a pellet with various media (5% NaCl, growth medium, PBS etc.). The diluting process produces a uniform concentration of bacteria, and the bacterial concentration can be controlled by controlling volumes of media.
as §2
One of the most important applications of the tissue sentinels is to serve as a dynamic substrate for the study of antibiotic sensitivity and resistance. […]

SMILES: O=C(O)c1cn(C2CC2)c2cc(N3CCNCC3)c(F)cc2c1=O [Cipro, Ciprofloxacin]
- response of highest frequencies to Cipro (Listeria pellet): not affected
- response of highest frequencies to Cipro (Salmonella pellet): not affected
- response of highest frequencies to Cipro (E. coli pellet; short-time response within 30 minutes of dose): not affected

SMILES: CC1(C)S[C@@H]2[C@H](NC(=O)Cc3ccccc3)C(=O)N2[C@H]1C(=O)O [penicillin, penicillin G]
- time after antibiotic at which weak infection signal emerges ([1]; L. mono, penicillin alone): about 8 hours
- inhibition of L. mono strain by antibiotic ([1]; penicillin alone without streptomycin, FIG. 22): not completely inhibited

SMILES: CCO [ethanol]
- response of highest frequency (E. coli pellet; 70% ethanol): relatively unaffected

SMILES: [Na+].[OH-] [NaOH]
- spectrogram response of E. coli pellet to chemical agent (E. coli pellet; FIG. 10): broad inhibition of activity
- low frequency response after adding chemical agents (E. coli pellet; FIG. 10 legend): highly suppressed
